Drawing on ChEMBL document CHEMBL3860095, “1H-1,2,3-Triazolyl-substituted 1,3,4-oxadiazole derivatives containing structural features of ibuprofen/naproxen: Their synthesis and antibacterial evaluation” (2016), this text covers zone of inhibition for eleven compounds.

Common to all, as to format: functional
Holding throughout (conditions): read-out: DIZ

In experiment [1] the test system is Klebsiella pneumoniae. Nature of the experiment: Antibacterial activity against clinical isolates of Klebsiella pneumoniae at 0.5 mg after overnight incubation by agar well diffusion method. Background: Agar diffusion results depend on both activity and mobility in agar.
Experiment [2] relates to Staphylococcus aureus. Nature of the experiment: Antibacterial activity against clinical isolates of Staphylococcus aureus at 0.5 mg after overnight incubation by agar well diffusion method.
Experiment [3] has as its system Staphylococcus epidermidis. Nature of the experiment: Antibacterial activity against clinical isolates of Staphylococcus epidermidis at 0.5 mg after overnight incubation by agar well diffusion method.
The next experiment concerns Bacillus subtilis. Nature of the experiment: Antibacterial activity against clinical isolates of Bacillus subtilis at 0.5 mg after overnight incubation by agar well diffusion method.
In experiment [4] the test system is Escherichia coli. Nature of the experiment: Antibacterial activity against clinical isolates of Escherichia coli at 0.5 mg after overnight incubation by agar well diffusion method.
Experiment [5] concerns Pseudomonas aeruginosa. Nature of the experiment: Antibacterial activity against clinical isolates of Pseudomonas aeruginosa at 0.5 mg after overnight incubation by agar well diffusion method.
Experiment [6] has as its system Pseudomonas aeruginosa. In words: Antibacterial activity against clinical isolates of Pseudomonas aeruginosa at 0.05 mg after overnight incubation by agar well diffusion method.
The test system of experiment [7] is Klebsiella pneumoniae. Nature of the experiment: Antibacterial activity against clinical isolates of Klebsiella pneumoniae at 0.05 mg after overnight incubation by agar well diffusion method.
Experiment [8] deals with Escherichia coli. In words: Antibacterial activity against clinical isolates of Escherichia coli at 0.05 mg after overnight incubation by agar well diffusion method.
Experiment [9] relates to Staphylococcus aureus. In words: Antibacterial activity against clinical isolates of Staphylococcus aureus at 0.05 mg after overnight incubation by agar well diffusion method.

With `COc1ccc2cc([C@H](C)c3nnc(SCc4cn(CC(=O)Nc5c(C)cccc5C)nn4)o3)ccc2c1`, the zone of inhibition at 500 µg/disc in the experiment with Klebsiella pneumoniae [1] is 9 mm; in the experiment on Staphylococcus aureus [2], 13 mm; in experiment [3] it was 12 mm; with Bacillus subtilis it was 15 mm; in the experiment with Escherichia coli [4], 11 mm; with Pseudomonas aeruginosa [5] it was 11 mm.
Regarding `COc1ccc2cc([C@H](C)c3nnc(SCc4cn(-c5ccccc5)nn4)o3)ccc2c1`, the zone of inhibition at 500 µg/disc is 12 mm in the experiment on Klebsiella pneumoniae [1]; 14 mm in the experiment with Staphylococcus aureus [2]; 15 mm in [3]; 14 mm with Bacillus subtilis; 13 mm with Escherichia coli [4]; 12 mm in the experiment on Pseudomonas aeruginosa [5].
Consider `COc1ccc2cc([C@H](C)c3nnc(SCc4cn(CC(=O)Nc5cccc(Cl)c5)nn4)o3)ccc2c1`, for which the zone of inhibition at 500 µg/disc with Klebsiella pneumoniae [1] worked out at 10 mm; in the experiment with Staphylococcus aureus [2] it was 12 mm; in [3], 11 mm; in the experiment with Bacillus subtilis, 14 mm; in the experiment with Escherichia coli [4], 12 mm; in the experiment on Pseudomonas aeruginosa [5], 13 mm.
With `COc1ccc2cc([C@H](C)c3nnc(SCc4cn(CC(=O)Nc5ccccc5Cl)nn4)o3)ccc2c1`, the zone of inhibition at 500 µg/disc with Klebsiella pneumoniae [1] was determined as 14 mm; in the experiment on Staphylococcus aureus [2], 15 mm; in [3], 16 mm; in the experiment with Bacillus subtilis, 15 mm; in the experiment on Escherichia coli [4], 13 mm; with Pseudomonas aeruginosa [5], 14 mm.
For `COc1ccc2cc([C@H](C)c3nnc(SCc4cn(CC(=O)Nc5ccccc5C)nn4)o3)ccc2c1`, the zone of inhibition at 500 µg/disc in the experiment with Klebsiella pneumoniae [1] came to 13 mm; with Staphylococcus aureus [2], 13 mm; in [3] it was 15 mm; in the experiment on Bacillus subtilis it was 12 mm; with Escherichia coli [4], 10 mm; with Pseudomonas aeruginosa [5], 14 mm.
With `CC(C)Cc1ccc(C(C)c2nnc(SCc3cn(CC(=O)Nc4cccc(Cl)c4)nn3)o2)cc1` (racemic), the zone of inhibition at 500 µg/disc in the experiment on Klebsiella pneumoniae [1] was determined as 11 mm; with Staphylococcus aureus [2], 14 mm; in [3] it was 13 mm; in the experiment with Bacillus subtilis, 12 mm; with Escherichia coli [4] it was 12 mm; with Pseudomonas aeruginosa [5], 15 mm.
For the compound `Cc1ccccc1NC(=O)Cn1cc(CSc2nnc(C(C)c3ccc(CC(C)C)cc3)o2)nn1` (racemic), the zone of inhibition at 500 µg/disc was determined as 13 mm in the experiment on Klebsiella pneumoniae [1]; 13 mm in the experiment on Staphylococcus aureus [2]; 13 mm in experiment [3]; 11 mm in the experiment with Bacillus subtilis; 13 mm in the experiment with Escherichia coli [4]; 14 mm with Pseudomonas aeruginosa [5].
Turning to `CC(C)Cc1ccc(C(C)c2nnc(SCc3cn(-c4ccccc4)nn3)o2)cc1` (racemic), the zone of inhibition at 500 µg/disc in the experiment with Klebsiella pneumoniae [1] was determined as 10 mm; in the experiment with Staphylococcus aureus [2], 10 mm; in experiment [3], 9 mm; in the experiment with Bacillus subtilis, 11 mm; with Escherichia coli [4], 10 mm; in the experiment on Pseudomonas aeruginosa [5], 11 mm.
In the case of `CC(C)Cc1ccc(C(C)c2nnc(SCc3cn(CC(=O)Nc4ccccc4[N+](=O)[O-])nn3)o2)cc1` (racemic), the zone of inhibition at 500 µg/disc was determined as 9 mm with Klebsiella pneumoniae [1]; 11 mm in the experiment with Staphylococcus aureus [2]; 10 mm in [3]; 10 mm in the experiment with Bacillus subtilis; 11 mm in the experiment on Escherichia coli [4]; 9 mm in the experiment on Pseudomonas aeruginosa [5].
Turning to `CC(C)Cc1ccc(C(C)c2nnc(SCc3cn(CC(=O)Nc4ccc(Cl)cc4)nn3)o2)cc1` (racemic), the zone of inhibition at 500 µg/disc in the experiment with Klebsiella pneumoniae [1] is 15 mm; in the experiment on Staphylococcus aureus [2], 11 mm; in experiment [3], 15 mm; in the experiment on Bacillus subtilis it was 16 mm; in the experiment with Escherichia coli [4], 15 mm; with Pseudomonas aeruginosa [5] it was 14 mm.
In the case of `NCC[C@H](O)C(=O)N[C@@H]1C[C@H](N)[C@@H](O[C@H]2O[C@H](CN)[C@@H](O)[C@H](O)[C@H]2O)[C@H](O)[C@H]1O[C@H]1O[C@H](CO)[C@@H](O)[C@H](N)[C@H]1O` [AMIKACIN], the zone of inhibition at 50 µg/disc in the experiment with Pseudomonas aeruginosa [6] amounted to 22 mm; in the experiment on Klebsiella pneumoniae [7] it was 23 mm; in the experiment with Escherichia coli [8], 20 mm; in the experiment on Staphylococcus aureus [9] it was 23 mm.
